Laboratory results reported in patent publication US8614327B2 (Vertex Pharmaceuticals Incorporated, priority 2004, dated 2013).

Biological target: T1, ΔF508-CFTR (Homo sapiens, UniProt P13569, DEL508-508)
T1 construct: expressed in transfected cells
Experiment: Membrane potential optical (FRET/VIPR) assay, identification of potentiator compounds
Type: cell-based
Conditions: Table 3, assay not given; for % Activity: relative efficacy
Summary of the method: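 Double-addition potentiator screen: compound delivered in gluconate-substituted Cl^--free medium, membrane potential followed via CC2-DMPE/DiSBAC2(3) FRET on VIPR. Cells were ΔF508-CFTR-expressing NIH3T3 mouse fibroblasts, held 2 h at 37° C. then 24 h at 27° C. before assay.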

T1 sequence (P13569 with tags, fused parts or gaps DEL508-508): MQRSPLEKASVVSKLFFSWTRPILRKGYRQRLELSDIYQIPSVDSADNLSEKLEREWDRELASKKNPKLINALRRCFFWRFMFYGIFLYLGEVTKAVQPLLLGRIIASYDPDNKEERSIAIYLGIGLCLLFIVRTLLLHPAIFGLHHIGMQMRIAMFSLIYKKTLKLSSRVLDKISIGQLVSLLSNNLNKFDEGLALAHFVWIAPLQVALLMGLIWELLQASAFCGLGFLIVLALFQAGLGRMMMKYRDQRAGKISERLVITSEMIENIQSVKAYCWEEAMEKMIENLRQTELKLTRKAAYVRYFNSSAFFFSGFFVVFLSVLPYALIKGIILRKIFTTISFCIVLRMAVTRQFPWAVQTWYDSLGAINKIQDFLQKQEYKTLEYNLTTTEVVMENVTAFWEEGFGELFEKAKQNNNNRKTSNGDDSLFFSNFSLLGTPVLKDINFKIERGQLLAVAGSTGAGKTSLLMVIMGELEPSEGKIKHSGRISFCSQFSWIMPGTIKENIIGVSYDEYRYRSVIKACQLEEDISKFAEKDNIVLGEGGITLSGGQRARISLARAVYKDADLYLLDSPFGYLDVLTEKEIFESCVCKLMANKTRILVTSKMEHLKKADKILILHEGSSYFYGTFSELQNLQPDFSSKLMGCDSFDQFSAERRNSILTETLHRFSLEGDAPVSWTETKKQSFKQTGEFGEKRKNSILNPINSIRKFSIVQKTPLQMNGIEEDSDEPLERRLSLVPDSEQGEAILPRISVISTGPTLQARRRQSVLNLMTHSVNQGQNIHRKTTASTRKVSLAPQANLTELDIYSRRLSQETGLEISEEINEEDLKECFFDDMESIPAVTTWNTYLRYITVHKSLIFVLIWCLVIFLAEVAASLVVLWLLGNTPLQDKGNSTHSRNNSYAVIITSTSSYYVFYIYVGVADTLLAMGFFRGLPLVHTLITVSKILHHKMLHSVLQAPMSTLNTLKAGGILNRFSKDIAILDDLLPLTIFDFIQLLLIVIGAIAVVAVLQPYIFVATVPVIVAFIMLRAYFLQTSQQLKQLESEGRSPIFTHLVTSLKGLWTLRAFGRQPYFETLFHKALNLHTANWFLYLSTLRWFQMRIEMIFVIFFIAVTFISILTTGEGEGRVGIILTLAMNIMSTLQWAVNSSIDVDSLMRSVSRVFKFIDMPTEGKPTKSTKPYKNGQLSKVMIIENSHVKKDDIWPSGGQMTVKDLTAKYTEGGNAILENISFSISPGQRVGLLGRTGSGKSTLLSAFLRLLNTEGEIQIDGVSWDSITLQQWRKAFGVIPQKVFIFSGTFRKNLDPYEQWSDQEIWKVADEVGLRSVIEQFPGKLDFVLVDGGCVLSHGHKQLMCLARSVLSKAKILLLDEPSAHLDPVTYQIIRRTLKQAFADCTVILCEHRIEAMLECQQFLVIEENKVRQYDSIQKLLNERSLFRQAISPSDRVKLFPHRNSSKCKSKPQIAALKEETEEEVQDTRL

EC50 [µM]	% Activity	SMILES
< 10	++ (between 25% to 100%)	CC(C)c1ccccc1NC(=O)c1c[nH]c2ccccc2c1=O [Compound 36, N-(2-isopropylphenyl)-4-oxo-1H-quinoline-3-carboxamide]
< 10	++ (between 25% to 100%)	O=C(Nc1ccc(C2CCCCC2)c(O)c1)c1c[nH]c2ccccc2c1=O [Compound 564, N-(4-cyclohexyl-3-hydroxy-phenyl)-4-oxo-1H-quinoline-3-carboxamide]
< 10	++ (between 25% to 100%)	C[C@H]1CCCN1c1ccc(NC(=O)c2c[nH]c3cccc(C(F)(F)F)c3c2=O)c(C(F)(F)F)c1 [Compound 669, (S)-N-(4-(2-methylpyrrolidin-1-yl)-2-(trifluoromethyl)phenyl)-4-oxo-5-(trifluoromethyl)-1,4-dihydroquinoline-3-carboxamide]
< 10	++ (between 25% to 100%)	Cc1cccc2[nH]cc(C(=O)Nc3ccc(N4CC(F)(F)C[C@H]4C)cc3C(F)(F)F)c(=O)c12 [Compound 667, (R)-N-(4-(4,4-difluoro-2-methylpyrrolidin-1-yl)-2-(trifluoromethyl)phenyl)-5-methyl-4-oxo-1,4-dihydroquinoline-3-carboxamide]
10 to 25	++ (between 25% to 100%)	Cc1c[nH]c2cccc(NC(=O)c3c[nH]c4ccccc4c3=O)c12 [Compound 338, N-(3-methyl-1H-indol-4-yl)-4-oxo-1H-quinoline-3-carboxamide]
< 10	++ (between 25% to 100%)	CSc1ccc(-c2ccccc2NC(=O)c2c[nH]c3ccccc3c2=O)cc1 [Compound 223, N-[2-(4-methylsulfanylphenyl)phenyl]-4-oxo-1H-quinoline-3-carboxamide]
< 10	++ (between 25% to 100%)	CC(C)(C)OC(=O)N1CCC2(CCNc3cc(NC(=O)c4c[nH]c5ccccc5c4=O)ccc32)CC1 [Compound 238, 7′-[(4-oxo-1H-quinolin-3-ylcarbonyl)amino]-spiro[piperidine-4,4′(1′H)-quinoline], 2′,3′-dihydro-carboxylic acid tert-butyl ester]
< 10	++ (between 25% to 100%)	CC(=O)c1ccc(-c2ccccc2NC(=O)c2c[nH]c3ccccc3c2=O)s1 [Compound 174, N-[2-(5-acetyl-2-thienyl)phenyl]-4-oxo-1H-quinoline-3-carboxamide]
< 10	++ (between 25% to 100%)	COc1ccc2c(=O)c(C(=O)Nc3cc(O)c(C(C)(C)C)cc3C(C)(C)C)c[nH]c2c1 [Compound 583, N-(5-hydroxy-2,4-ditert-butyl-phenyl)-7-methoxy-4-oxo-1H-quinoline-3-carboxamide]
10 to 25	+ (<25%)	CCOc1cccc2c(=O)c(C(=O)Nc3cc(O)c(C(C)(C)C)cc3F)c[nH]c12 [Compound 526, 8-ethoxy-N-(2-fluoro-5-hydroxy-4-tert-butyl-phenyl)-4-oxo-1H-quinoline-3-carboxamide]
10 to 25	++ (between 25% to 100%)	Cc1ccccc1-c1nc2cc(NC(=O)c3c[nH]c4ccccc4c3=O)ccc2o1 [Compound 329, N-[2-(o-tolyl)benzooxazol-5-yl]-4-oxo-1H-quinoline-3-carboxamide]
< 10	++ (between 25% to 100%)	O=C(Nc1ccccc1Oc1ccc(Cl)cc1Cl)c1c[nH]c2ccccc2c1=O [Compound 245, N-[2-(2,4-dichlorophenoxy)phenyl]-4-oxo-1H-quinoline-3-carboxamide]
< 10	++ (between 25% to 100%)	Cc1ccc(NC(=O)c2c[nH]c3ccccc3c2=O)c(C)c1 [Compound 281, N-(2,4-dimethylphenyl)-4-oxo-1H-quinoline-3-carboxamide]
10 to 25	++ (between 25% to 100%)	CC(C)(C)c1ccc(NC(=O)c2cnc3ccccc3c2OCc2ccccc2)cc1O [Compound 275, 4-Benzyloxy-N-(3-hydroxy-4-tert-butyl-phenyl)-quinoline-3-carboxamide]
< 10	++ (between 25% to 100%)	O=C(Nc1ccc(OC(F)(F)F)cc1)c1c[nH]c2ccccc2c1=O [Compound 176, 4-oxo-N-[4-(trifluoromethoxy)phenyl]-1H-quinoline-3-carboxamide]
< 10	++ (between 25% to 100%)	CC(C)(C)c1cc(F)c(NC(=O)c2c[nH]c3ccc(F)cc3c2=O)cc1O [Compound 319, 6-fluoro-N-(2-fluoro-5-hydroxy-4-tert-butyl-phenyl)-4-oxo-1H-quinoline-3-carboxamide]
–	++ (between 25% to 100%)	CS(=O)(=O)Nc1cc(NC(=O)c2c[nH]c3ccccc3c2=O)cc(C(F)(F)F)c1 [Compound 441, N-[3-methylsulfonylamino-5-(trifluoromethyl)phenyl]-4-oxo-1H-quinoline-3-carboxamide]
< 10	++ (between 25% to 100%)	CC(C)c1ccc(NC(=O)c2c[nH]c3cc(F)c(F)cc3c2=O)c(C(F)(F)F)c1 [Compound 589, 6,7-difluoro-N-[4-isopropyl-2-(trifluoromethyl)phenyl]-4-oxo-1H-quinoline-3-carboxamide]

EC50 [µM]	% Activity	SMILES
< 10	++ (between 25% to 100%)	CC(=O)n1ccc2ccc(NC(=O)c3c[nH]c4ccccc4c3=O)cc21 [Compound 187, N-(1-acetyl-1H-indol-6-yl)-4-oxo-1H-quinoline-3-carboxamide]
< 10	++ (between 25% to 100%)	CC1CCN(c2ccccc2NC(=O)c2c[nH]c3ccccc3c2=O)CC1 [Compound 372, N-[2-(4-methyl-1-piperidyl)phenyl]-4-oxo-1H-quinoline-3-carboxamide]
10 to 25	++ (between 25% to 100%)	N#Cc1c(Cl)cccc1NC(=O)c1c[nH]c2ccccc2c1=O [Compound 222, N-(3-chloro-2-cyano-phenyl)-4-oxo-1H-quinoline-3-carboxamide]
10 to 25	++ (between 25% to 100%)	O=C(Nc1ccc2[nH]ccc2c1)c1c[nH]c2ccccc2c1=O [Compound 294, N-(1H-indol-5-yl)-4-oxo-1H-quinoline-3-carboxamide]
< 10	++ (between 25% to 100%)	O=C(Nc1cccnc1Oc1ccccc1F)c1c[nH]c2ccccc2c1=O [Compound 435, N-[2-(2-fluorophenoxy)-3-pyridyl]-4-oxo-1H-quinoline-3-carboxamide]
< 10	++ (between 25% to 100%)	CC(C)(C)c1ccc(NC(=O)c2c[nH]c3ccccc3c2=O)cc1N1CCCCC1 [Compound 510, 4-oxo-N-[3-(1-piperidyl)-4-tert-butyl-phenyl]-1H-quinoline-3-carboxamide]
< 10	++ (between 25% to 100%)	CC(C)(C)c1cc(C(C)(C)C)c(NC(=O)c2c[nH]c3c(F)ccc(F)c3c2=O)cc1O [Compound 718, 5,8-difluoro-N-(5-hydroxy-2,4-ditert-butyl-phenyl)-4-oxo-1H-quinoline-3-carboxamide]
< 10	++ (between 25% to 100%)	O=C(Nc1ccc(C2CCCCC2)c(O)c1)c1c[nH]c2ccc(F)cc2c1=O [Compound 651, N-(4-cyclohexyl-3-hydroxy-phenyl)-6-fluoro-4-oxo-1H-quinoline-3-carboxamide]
10 to 25	+ (<25%)	N#Cc1cc(Cl)cc(Cl)c1NC(=O)c1c[nH]c2ccccc2c1=O [Compound 369, N-(2,4-dichloro-6-cyano-phenyl)-4-oxo-1H-quinoline-3-carboxamide]
< 10	++ (between 25% to 100%)	CC(C)(C)c1ccc(NC(=O)c2c[nH]c3cccc(O)c3c2=O)cc1O [Compound 633, 5-hydroxy-N-(3-hydroxy-4-tert-butyl-phenyl)-4-oxo-1H-quinoline-3-carboxamide]
< 10	++ (between 25% to 100%)	O=C(Nc1ccc2c(c1)OC(F)(F)C(F)(F)O2)c1c[nH]c2ccccc2c1=O [Compound 440, N-(2,2,3,3-tetrafluoro-2,3-dihydrobenzo[b][1,4]dioxin-6-yl)-1,4-dihydro-4-oxoquinoline-3-carboxamide]
< 10	++ (between 25% to 100%)	CC(C)N1CCN(c2ccc(NC(=O)c3c[nH]c4ccccc4c3=O)c(C(F)(F)F)c2)CC1 [Compound 639, N-[4-(4-isopropylpiperazin-1-yl)-2-(trifluoromethyl)phenyl]-4-oxo-1H-quinoline-3-carboxamide]
< 10	++ (between 25% to 100%)	O=C(Nc1ccc(C(F)(F)F)c(O)c1)c1c[nH]c2c(Cl)cccc2c1=O [Compound 716, 8-chloro-N-[3-hydroxy-4-(trifluoromethyl)phenyl]-4-oxo-1H-quinoline-3-carboxamide]
< 10	++ (between 25% to 100%)	O=C(Nc1ccccc1-c1cc(F)ccc1F)c1c[nH]c2ccccc2c1=O [Compound 384, N-[2-(2,5-difluorophenyl)phenyl]-4-oxo-1H-quinoline-3-carboxamide]
< 10	++ (between 25% to 100%)	Cc1ccc2[nH]cc(C(=O)Nc3cc(O)c(C(C)(C)C)cc3C(C)(C)C)c(=O)c2c1 [Compound 688, N-(5-hydroxy-2,4-ditert-butyl-phenyl)-6-methyl-4-oxo-1H-quinoline-3-carboxamide]
< 10	++ (between 25% to 100%)	COC(=O)c1c(NC(=O)c2c[nH]c3ccccc3c2=O)csc1C(C)(C)C [Compound 690, methyl 4-[(4-oxo-1H-quinolin-3-yl)carbonylamino]-2-tert-butyl-thiophene-3-carboxylate]
< 10	++ (between 25% to 100%)	COc1cccc2[nH]cc(C(=O)Nc3ccc4cc[nH]c4c3)c(=O)c12 [Compound 479, N-(1H-indol-6-yl)-5-methoxy-4-oxo-1H-quinoline-3-carboxamide]
